Measurements: patent publication US20250188030A1, “Biphenyl and Phenylpyridine Compounds” (Pfizer Inc., priority 2023, published 2025)
Like-named read-outs stand apart in the source and are kept apart here.

Key:
[1] = biological target: KAT2A (Homo sapiens (Human), UniProt Q92830); assay: KAT2A acetyltransferase biochemical assay (RapidFire mass spectrometry, AcCoA to CoA)
[2] = system: H3K9AC (HT1080 cells); assay: H3K9AC Sandwich ELISA Assay in HT1080 cells (KAT2A primary cell-based screening assay); parameters: species or system Human
Procedure: Human fibrosarcoma cell line HT1080 was obtained from American Type Culture Collection (ATCC), Manassas, VA USA, Cat. HT-1080 (ATCC® CCL-121™). Cells were cultured in MEM (Thermo Fisher Scientific/Gibco Life Technologies Cat. #11-095-080) plus 10% (v/v) FBS (Thermo Fisher Scientific/Gibco Life Technologies Cat. #26140-079) and 1% Penicillin-Streptomycin (Thermo Fisher Scientific/Gibco Life Technologies Cat. #15070063) at 37° C. in 5% CO2.
HT1080 cells were trypsinized, cell viability count performed, and cells suspended in complete media at 100,000 cells/ml. Cells were seeded (100 μl/well) into Greiner Bio-One CELLSTAR 96-well polystyrene flat bottom cell culture microplate (Thermo Fisher Scientific Cat. #07-000-162) at a density of 10,000 cells/well. Cells were incubated for 16 hours at 37° C. at 5% CO2. Compound dilution plates were prepared in 96-well, clear U-bottom, polypropylene plates (Corning 3365) in 100% DMSO at 10 mM stock concentration in duplicate, using 10-point serial dilution (1:3). Compounds were diluted to 1:200 in growth medium and 25 μl from intermediate compound plates were added to each well of the cell plates using a Beckman FX liquid handling system such that the highest compound concentration tested was 10 μM final, with a 0.1% final DMSO concentration in the total volume of 125 μl. Plates were incubated for 24 hours at 37° C. and 5% CO2. Plates were centrifuged at 2500 rpm for 5 minutes and medium was removed. 100 μL 0.4N HCL (Thermo Fisher Scientific Cat #SA56-1) was added to each well and plates were shaken for 60 minutes at 4C to lyse cells. 38ul 0.4N Sodium phosphase dibasic pH12.5 (Thermo Fisher Scientific Cat #S375-212) containing 2 mM Sodium Butyrate (Millipore TR1008G) and 3 mM Phenylmethanesulfonyl-fluoride (Sigma 93482) was added to each well to neutralize lysates.
Cell lysate plates were mixed for 5 minutes at room temperature on shaker and immediately frozen at −80C overnight. Cell lysates were thawed and 50 μL/well was transferred to ELISA plates (Total Histone H3 mouse (Cell Signaling Technology Cat #14269) mAb-coated Corning 1×8 strip-well, white, 96-well plates (Corning 2485)). After 2 hours room temperature incubation, plates were washed six times with PBS/0.05% Tween Wash Buffer using a BioTek plate washer. 50 μL of Histone H3K9AC rabbit detection mAb (Cell Signaling Technology Cat #9649S) diluted 1:1000 in blocking buffer (Thermo Fisher Scientific Cat #37542) was added to each well and incubated for 2 hours at room temperature. After washing, 50 μL anti-rabbit IgG, HRP-Linked antibody (Cell Signaling Technology Cat #7074) diluted 1:1000 in blocking buffer was added to each well and incubated for 60 minutes at room temperature. Following incubation, plates were washed as described above. 50 μL of luminescent GLO substrate reagent (R&D System Cat #DY993) was added to each well and incubated for 10 minutes at room temperature. Plates were read on the PHERAstar plate reader using the 96-well with Luminescent reading mode. IC50 values were calculated using a four-parameter fit with GraphPad Prism version 9.5.1 or in-house modified IDBS ActivityBase data analyzing package.

[3] = read-out: KAT2A Ki at 1 μM AcCoA, 5 μM H3 1-21 peptide, 0.5 nM KAT2A, 90-minute reaction
[4] = Homo sapiens, HT-1080, H3K9AC sandwich ELISA

Chain of KAT2A (Q92830 whole entry): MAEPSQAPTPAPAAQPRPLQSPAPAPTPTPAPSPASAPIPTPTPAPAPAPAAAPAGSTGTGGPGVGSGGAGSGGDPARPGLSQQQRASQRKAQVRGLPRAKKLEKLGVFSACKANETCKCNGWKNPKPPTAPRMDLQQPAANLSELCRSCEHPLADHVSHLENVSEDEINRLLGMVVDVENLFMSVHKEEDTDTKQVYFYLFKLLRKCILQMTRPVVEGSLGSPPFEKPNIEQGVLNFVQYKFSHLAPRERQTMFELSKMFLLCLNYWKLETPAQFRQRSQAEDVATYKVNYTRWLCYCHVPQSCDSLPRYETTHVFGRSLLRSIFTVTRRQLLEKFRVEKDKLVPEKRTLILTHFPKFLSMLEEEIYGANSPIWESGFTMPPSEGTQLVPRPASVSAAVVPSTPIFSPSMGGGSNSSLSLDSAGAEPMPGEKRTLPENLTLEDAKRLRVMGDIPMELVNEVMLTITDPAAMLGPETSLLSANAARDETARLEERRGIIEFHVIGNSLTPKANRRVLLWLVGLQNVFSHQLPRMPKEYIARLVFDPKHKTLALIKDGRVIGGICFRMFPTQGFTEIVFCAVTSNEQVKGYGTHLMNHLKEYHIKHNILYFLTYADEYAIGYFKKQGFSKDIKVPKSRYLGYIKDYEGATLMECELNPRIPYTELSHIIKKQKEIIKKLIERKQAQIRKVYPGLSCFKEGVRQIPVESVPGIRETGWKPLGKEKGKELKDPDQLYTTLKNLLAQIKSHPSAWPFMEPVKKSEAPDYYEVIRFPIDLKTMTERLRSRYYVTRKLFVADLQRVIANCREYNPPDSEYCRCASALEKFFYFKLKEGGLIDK

## CC[C@](C)(C(=O)O)c1ccc(O[C@@H]2CC[C@@H](NC(=O)[C@]3(F)CNC4(CCC4)C3)C2)c(-c2cccc(F)c2C2CCC2)c1 (single isomer, unassigned) [Example A11]
[1]; [3]
  Ki: > 1000 nM
[2]; H3K9AC sandwich ELISA
  IC50: > 1000 nM

## CC1(C)C[C@@](F)(C(=O)N[C@@H]2CC[C@@H](Oc3ccc(C(=O)O)cc3-c3cccc(F)c3C3CCC3)C2)CN1 (single isomer, unassigned) [Example A13]
[1]; [3]
  Ki: 96 nM
[2]; H3K9AC sandwich ELISA
  IC50: > 1000 nM

## CC1(C)CNC[C@](F)(C(=O)N[C@@H]2CC[C@@H](Oc3ccc(C(C)(C)C(=O)O)cc3-c3cccc(F)c3C3CCC3)C2)C1 (single isomer, unassigned) [Example A15]
[1]; [3]
  Ki: > 1000 nM
[2]; H3K9AC sandwich ELISA
  IC50: 296 nM

## O=C(O)Cc1ccc(O[C@@H]2CC[C@@H](NC(=O)[C@@]3(F)CNC4(CCCC4)C3)C2)c(-c2cccc(F)c2C2CCC2)c1 (single isomer, unassigned) [Example A26]
[1]; [3]
  Ki: 29.1 nM
[2]; H3K9AC sandwich ELISA
  IC50: 95.6 nM

## CC(C)(C(=O)O)c1ccc(O[C@@H]2CC[C@@H](NC(=O)[C@@]3(F)CNCC4(CCC4)C3)C2)c(-c2cccc(F)c2C2CCC2)c1 (single isomer, unassigned) [Example A28]
[1]; [3]
  Ki: 1.41 nM
[2]; H3K9AC sandwich ELISA
  IC50: 53.6 nM

## O=C(O)c1ccc(O[C@@H]2CC[C@@H](NC(=O)[C@@]3(F)CNCC4(CCC4)C3)C2)c(-c2cccc(F)c2C2CCC2)c1 (single isomer, unassigned) [Example A33]
[1]; [3]
  Ki: > 99.9 nM
[2]; H3K9AC sandwich ELISA
  IC50: > 1000 nM

## O=C(O)c1ccc(O[C@@H]2CC[C@@H](NC(=O)[C@@]3(F)CNC4(CCCC4)C3)C2)c(-c2cccc(F)c2C2CCC2)c1 (single isomer, unassigned) [Example A35]
[1]; [3]
  Ki: > 99.9 nM
[2]; H3K9AC sandwich ELISA
  IC50: > 1000 nM

## CC1(C)CNC[C@](F)(C(=O)N[C@@H]2CC[C@@H](Oc3ccc(C(=O)O)cc3-c3cccc(F)c3C3CCC3)C2)C1 (single isomer, unassigned) [Example A37]
[1]; [3]
  Ki: 0.02 nM
[2]; H3K9AC sandwich ELISA
  IC50: > 1000 nM

## CCS(=O)(=O)NC(=O)C(C)(C)c1ccc(O[C@@H]2CC[C@@H](NC(=O)C3(F)CNC4(CCC4)C3)C2)c(-c2cccc(F)c2C2CCC2)c1 (single isomer, unassigned) [Example B1]
[1]; KAT2A Ki at 1 μM AcCoA, 5 μM H3 1-21 peptide, 0.5 nM KAT2A, 90-minute reaction
  Ki: 80.5 nM
[2]; H3K9AC sandwich ELISA
  IC50: 562 nM

## CC(C)(C(=O)NS(=O)(=O)N1CC(F)C1)c1ccc(O[C@@H]2CC[C@@H](NC(=O)[C@]3(F)CNC4(CCC4)C3)C2)c(-c2cccc(F)c2C2CCC2)c1 (single isomer, unassigned) [Example B6]
[1]; [3]
  Ki: 746 nM
[2]; [4]
  IC50: > 1000 nM

## CN1C[C@@](F)(C(=O)N[C@@H]2CC[C@@H](Oc3ccc(C(C)(C)C(=O)NS(C)(=O)=O)cc3-c3cccc(F)c3C3CCC3)C2)CC1(C)C (single isomer, unassigned) [Example B8]
[1]; [3]
  Ki: 716 nM
[2]; [4]
  IC50: > 1000 nM

## CC(C)(C(=O)NS(=O)(=O)N1CC(F)(F)C1)c1ccc(O[C@@H]2CC[C@@H](NC(=O)[C@]3(F)CNC4(CCC4)C3)C2)c(-c2cccc(F)c2C2CCC2)c1 (single isomer, unassigned) [Example B10]
[1]; [3]
  Ki: 0.15 nM
[2]; [4]
  IC50: 15.7 nM

## CC(C)S(=O)(=O)NC(=O)C(C)(C)c1ccc(O[C@@H]2CC[C@@H](NC(=O)[C@@]3(F)CNC4(CCCC4)C3)C2)c(-c2cccc(F)c2C2CCC2)c1 (single isomer, unassigned) [Example B24]
[1]; [3]
  Ki: 0.09 nM
[2]; [4]
  IC50: 0.9 nM

## CCS(=O)(=O)NC(=O)C(C)(C)c1ccc(O[C@@H]2CC[C@@H](NC(=O)[C@@]3(F)CNCC4(CCC4)C3)C2)c(-c2cccc(F)c2C2CCC2)c1 (single isomer, unassigned) [Example B32]
[1]; [3]
  Ki: 0.85 nM
[2]; H3K9AC sandwich ELISA
  IC50: 18.2 nM

## CC1(C)C[C@](F)(C(=O)N[C@@H]2CC[C@@H](Oc3ccc(C(C)(C)C(=O)NS(=O)(=O)N4CCC4)cc3-c3cccc(F)c3C3CCC3)C2)CN1 (single isomer, unassigned) [Example C8]
[1]; [3]
  Ki: 13.6 nM
[2]; [4]
  IC50: 142 nM

## CC(C)(C(=O)NS(C)(=O)=O)c1ccc(O[C@@H]2CC[C@@H](NC(=O)[C@@]3(F)CNC4(CCC4)C3)C2)c(-c2cccc(F)c2C2CC2)c1 (single isomer, unassigned) [Example C13]
[1]; [3]
  Ki: 23.4 nM
[2]; [4]
  IC50: 942 nM
